Measured values as given in PMC10870240 (Chembiochem : a European journal of chemical biology, 2023).

Target: full-length CBP (Homo sapiens, UniProt Q92793)
Test: cellular thermal shift assay
Assay type: biochemical
Settings: 25 μM garcinolic acid, MV4-11 nuclear extract

Chain of full-length CBP (Q92793 2-2442): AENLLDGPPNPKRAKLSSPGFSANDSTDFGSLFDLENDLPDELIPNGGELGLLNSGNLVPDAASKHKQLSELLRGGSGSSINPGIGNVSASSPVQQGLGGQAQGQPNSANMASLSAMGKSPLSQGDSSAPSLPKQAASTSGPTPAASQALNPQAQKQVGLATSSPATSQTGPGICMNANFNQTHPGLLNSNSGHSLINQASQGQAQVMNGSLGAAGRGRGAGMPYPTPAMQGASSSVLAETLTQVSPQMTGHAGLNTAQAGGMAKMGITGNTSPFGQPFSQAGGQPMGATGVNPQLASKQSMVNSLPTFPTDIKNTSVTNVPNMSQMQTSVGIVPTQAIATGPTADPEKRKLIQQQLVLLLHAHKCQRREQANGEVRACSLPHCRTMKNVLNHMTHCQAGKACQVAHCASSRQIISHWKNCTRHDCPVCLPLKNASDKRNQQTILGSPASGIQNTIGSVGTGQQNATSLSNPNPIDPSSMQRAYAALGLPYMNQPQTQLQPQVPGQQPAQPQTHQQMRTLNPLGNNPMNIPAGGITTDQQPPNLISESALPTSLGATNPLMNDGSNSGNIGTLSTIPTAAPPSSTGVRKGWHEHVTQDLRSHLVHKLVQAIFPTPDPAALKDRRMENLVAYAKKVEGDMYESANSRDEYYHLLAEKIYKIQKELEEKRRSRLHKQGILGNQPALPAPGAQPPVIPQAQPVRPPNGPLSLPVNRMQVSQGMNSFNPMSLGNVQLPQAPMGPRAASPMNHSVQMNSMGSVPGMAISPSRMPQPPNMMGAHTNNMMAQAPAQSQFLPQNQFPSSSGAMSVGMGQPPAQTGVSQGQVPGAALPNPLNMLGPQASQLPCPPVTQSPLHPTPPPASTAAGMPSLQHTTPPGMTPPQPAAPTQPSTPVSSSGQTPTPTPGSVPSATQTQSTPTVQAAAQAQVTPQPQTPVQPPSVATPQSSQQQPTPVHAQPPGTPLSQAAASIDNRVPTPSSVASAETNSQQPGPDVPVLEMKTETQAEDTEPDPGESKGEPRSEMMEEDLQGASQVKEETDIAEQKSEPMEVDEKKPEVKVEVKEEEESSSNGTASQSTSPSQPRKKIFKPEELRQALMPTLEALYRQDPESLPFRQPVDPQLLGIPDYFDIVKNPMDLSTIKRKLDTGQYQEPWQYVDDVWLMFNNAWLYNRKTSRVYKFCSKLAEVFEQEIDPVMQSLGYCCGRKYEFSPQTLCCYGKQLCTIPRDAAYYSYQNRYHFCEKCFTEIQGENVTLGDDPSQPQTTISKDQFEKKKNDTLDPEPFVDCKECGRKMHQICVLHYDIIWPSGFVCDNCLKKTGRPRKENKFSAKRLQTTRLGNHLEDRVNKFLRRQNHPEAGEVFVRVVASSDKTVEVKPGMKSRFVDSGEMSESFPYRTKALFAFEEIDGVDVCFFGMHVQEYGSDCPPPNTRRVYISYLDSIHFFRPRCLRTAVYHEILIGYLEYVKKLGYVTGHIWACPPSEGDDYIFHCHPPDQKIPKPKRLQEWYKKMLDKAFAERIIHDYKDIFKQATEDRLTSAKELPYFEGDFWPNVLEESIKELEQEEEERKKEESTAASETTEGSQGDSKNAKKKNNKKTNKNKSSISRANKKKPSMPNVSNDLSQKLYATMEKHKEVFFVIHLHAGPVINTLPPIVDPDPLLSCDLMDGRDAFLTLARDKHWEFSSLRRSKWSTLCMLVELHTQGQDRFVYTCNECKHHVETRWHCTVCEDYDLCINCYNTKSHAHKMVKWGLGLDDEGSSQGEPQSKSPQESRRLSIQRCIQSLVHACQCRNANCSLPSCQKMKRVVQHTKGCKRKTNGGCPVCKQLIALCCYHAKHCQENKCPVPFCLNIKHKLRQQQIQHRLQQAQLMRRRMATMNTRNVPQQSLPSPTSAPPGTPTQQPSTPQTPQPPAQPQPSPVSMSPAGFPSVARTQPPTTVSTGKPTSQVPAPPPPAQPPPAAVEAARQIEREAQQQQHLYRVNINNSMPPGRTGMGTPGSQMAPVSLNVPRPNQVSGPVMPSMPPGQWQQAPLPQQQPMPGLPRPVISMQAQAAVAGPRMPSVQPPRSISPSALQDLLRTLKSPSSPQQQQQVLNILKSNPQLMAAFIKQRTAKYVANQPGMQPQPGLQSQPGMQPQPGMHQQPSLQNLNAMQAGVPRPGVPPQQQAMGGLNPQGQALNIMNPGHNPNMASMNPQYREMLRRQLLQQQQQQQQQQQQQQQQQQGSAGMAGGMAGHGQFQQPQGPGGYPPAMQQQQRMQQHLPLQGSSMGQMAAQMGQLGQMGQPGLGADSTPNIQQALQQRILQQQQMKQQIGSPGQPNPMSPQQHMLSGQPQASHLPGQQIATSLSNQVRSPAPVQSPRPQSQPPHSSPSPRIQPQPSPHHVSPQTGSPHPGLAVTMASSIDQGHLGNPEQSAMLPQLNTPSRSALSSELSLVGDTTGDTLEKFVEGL

SMILES: CC(C)=CCCC1(C)C=Cc2c(O)c3c(c(CC=C(C)C)c2O1)OC12C(=CCCC1C(C)(C)O[C@@]2(C/C=C(\C)C(=O)O)C(=O)O)C3=O (stereo partly shown) [garcinolic acid]
- cellular thermal shift assay (Western blot): intact CBP is still observed in the garcinolic acid treated samples
